The values that follow come from patent publication US20140369979A1, “VECTOR SIMULTANEOUSLY EXPRESSING DODECAMERIC TRAIL AND HSV-TK SUICIDE GENES, AND ANTICANCER STEM CELL THERAPEUTIC AGENT USING SAME” (POSTECH ACADEMY-INDUSTRY FOUNDATION, priority 2012, published 2014).

The subject of one assay is MSC/dTRAIL-TK. Put plainly: Survival rate of MSC/dTRAIL-TK after GCV treatment (MTS method). The assay is classed as cell-based, rat. To be noted: 100 μM GCV, one week after treatment. As for the experimental part:
In order to examine the suicide induction effect of MSC/dTRAIL-TK by GCV treatment, cells were treated with 10, 30, and 100 μM of GCV. From 1 day after GCV treatment, survival rate of MSC/dTRAIL-TK was examined by an MTS method every other day.
For orientation: Tetrazolium dyes change colour on reduction, which living cells bring about.

For assay [1], the system named is TRAIL expression by MSC/dTRAIL-TK. Put plainly: TRAIL expression of MSC/dTRAIL-TK after GCV treatment (ELISA of culture broth). To be noted: GCV 10, 30, 100 μM, culture broth every 24 hours. The format is cell-based, rat. Here is the method:
Next, in order to examine whether TRAIL expression is reduced by MSC/dTRAIL-TK apoptosis, GCV was treated at the same concentrations, and the culture broth was collected every 24 hours to examine TRAIL expression by ELISA (enzyme-linked immunosorbent assay).
(In general: An ELISA detects its analyte on a solid surface through an enzyme-linked reagent.)

For the molecule `Nc1nc(O)c2ncn(COC(CO)CO)c2n1` [GCV, ganciclovir], the “survival rate of MSC/dTRAIL-TK” value with MSC/dTRAIL-TK is “almost all cells were eliminated”. The TRAIL expression result in assay [1] is “TRAIL expression was reduced”.
